Laboratory results taken from US20220363649A1, “ORGANIC COMPOUNDS” (Rutgers, The State University of New Jersey, priority 2018, published 2022).
pKi: −log10 of the molar value. Like-named read-outs stand apart in the source and are kept apart here.

Experiments:
human S2R = biological target: T1, human S2R (Homo sapiens, UniProt Q5BJF2); experiment: Human S2R radiolabeled binding assay, Jurkat Clone E6-1 cell membranes, [3H] DTG; settings: for pKi: human membranes (Compounds 10-76); for S2R % at 1 μM: human membranes
T1 construct: performed using Jurkat cell line Clone E6-1 cells with 0.025 μM; endogenous in cells; host or cells: Jurkat Clone E6-1 cell membranes
T1 sequence (Q5BJF2 whole entry): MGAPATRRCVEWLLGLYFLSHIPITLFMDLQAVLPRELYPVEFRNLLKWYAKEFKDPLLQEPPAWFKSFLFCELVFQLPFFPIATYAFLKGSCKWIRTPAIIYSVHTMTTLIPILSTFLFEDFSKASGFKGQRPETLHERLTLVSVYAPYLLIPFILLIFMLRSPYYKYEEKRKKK
Procedure: The radiolabeled binding assay of the human S1R and S2R were performed using human jurkat cell membranes according to the protocol previously reported (Ganapathy, et al., 1999, J. Pharmacol. Exp. Ther. 289:251-60).
DTG as radioligand. […] The cells were incubated in RPMI 1640 Medium with 10% FBS, 100 U/ml penicillin and […] streptomycin. After incubation, the cells were suspended in 5 mM potassium phosphate buffer (pH=7.6). The membrane protein concentration was controlled at 5 mg/mL. The collected membrane protein was incubated with ligands in potassium phosphate buffer for 1 hour at room temperature and terminated by adding ice-cold buffer. Then the mixture is filtered with 0.7 μm syringe filter and washed three times. The radioactivity is determined by liquid scintillation spectrometry.
Radiolabeled binding assays were conducted using two different species. Compounds 1-9 were assayed using guinea pig brain membranes for the binding assays. Compounds 10-76 were assayed using human brain membranes for the binding assays.

human S1R = biological target: T2, human S1R (Homo sapiens, UniProt Q99720); experiment: Human S1R radiolabeled binding assay, human jurkat cell membranes, [3H]-pentazocine; settings: human membranes (Compounds 10-76)
T2 construct: experimentally determined in human jurkat cell membranes using 15.0 nM; endogenous in cells; host or cells: human Jurkat cell membranes
T2 sequence (Q99720 whole entry): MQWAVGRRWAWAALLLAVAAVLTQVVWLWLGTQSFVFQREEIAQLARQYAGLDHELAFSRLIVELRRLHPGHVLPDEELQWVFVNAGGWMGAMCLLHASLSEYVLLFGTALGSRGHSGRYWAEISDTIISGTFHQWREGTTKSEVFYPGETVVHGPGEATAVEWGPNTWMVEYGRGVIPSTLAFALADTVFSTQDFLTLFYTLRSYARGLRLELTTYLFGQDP
Procedure: The binding process was terminated by addition of cold buffer. Then, the mixture was filtered and washed with cold buffer. Radioactivity was identified using the TopCount NTX liquid scintillation counter (PerkinElmer, Waltham, Mass.).
(§1) Radiolabeled binding assays were conducted using two different species.

S1R = biological target: T3, S1R (Cavia porcellus, UniProt Q60492); experiment: S1R radiolabeled binding assay, guinea pig whole brain, [3H]-pentazocine
T3 construct: performed using Guinea pig whole brain according to the protocol previously reported; from tissue; host or cells: guinea pig whole brain membrane preparations
T3 sequence (Q60492 whole entry): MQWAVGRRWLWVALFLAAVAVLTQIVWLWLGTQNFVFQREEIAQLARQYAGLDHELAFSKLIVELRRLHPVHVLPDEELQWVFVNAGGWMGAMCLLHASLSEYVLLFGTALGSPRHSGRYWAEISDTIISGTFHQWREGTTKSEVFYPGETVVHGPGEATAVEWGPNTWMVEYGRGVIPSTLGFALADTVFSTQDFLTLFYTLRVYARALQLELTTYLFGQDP
Procedure: Following 1 h incubation at 25° C., the binding assay was terminated by addition of cold buffer. The mixture was then filtered through Whatman GF/B filters and washed with cold buffer. Radioactivity was identified using the liquid scintillation counter.
Receptor binding data were analyzed by nonlinear regression of saturation and competition curves using the GraphPad Prism 7.0 software (GraphPad Software, La Jolla, Calif.).
as §1

[1] = guinea pig brain membranes (Compounds 1-9), read-out: S1R Ki

SMILES | pKi (human S2R) | pKi (human S1R) | further results
Cn1nc(CN2CCCC2)nc1-c1cccc(C2(C(F)(F)F)CC2)c1 [Compound 17, 1-methyl-3-(pyrrolidin-1-ylmethyl)-5-(3-(1-(trifluoromethyl)cyclopropyl)phenyl)-1H-1,2,4-triazole] | < 6.00 | 7.49 | 
CN1CCN(Cc2nc(-c3ccc(C(C)(C)C)cc3)n(C)n2)CC1 [Compound 3, 1-((5-(4-(tert-butyl)phenyl)-1-methyl-1H-1,2,4-triazol-3-yl)methyl)-4-methylpiperazine] |  |  | pKi (S1R; [1]): 6.88
Cn1nc(CN2CCCC2)nc1-c1ccc(C2(C(F)(F)F)CC2)cc1 [Compound 10, 1-methyl-3-(pyrrolidin-1-ylmethyl)-5-(4-(1-(trifluoromethyl)cyclopropyl)phenyl)-1H-1,2,4-triazole] | < 6.00 | 8.00 | 
CC(C)(C)c1ccc(-c2nc(CN3CCC4(CCCC4)C3)nn2C2CC2)cc1 [Compound 75, 2-((5-(4-(tert-butyl)phenyl)-1-cyclopropyl-1H-1,2,4-triazol-3-yl)methyl)-2-azaspiro[4.4]nonane] |  | 9.25 | S2R % at 1 μM (human S2R): 105% at 1 μM
Cn1nc(CN2CCCC2)nc1-c1ccc2cc(Cl)sc2c1 [Compound 25, 5-(2-chlorobenzo[b]thiophen-6-yl)-1-methyl-3-(pyrrolidin-1-ylmethyl)-1H-1,2,4-triazole] | < 6.00 | 7.43 | 
CCn1nc(CN2CCCC2)nc1-c1ccc(C(C)(C)C)cc1 [Compound 30, 5-(4-(tert-butyl)phenyl)-1-ethyl-3-(pyrrolidin-1-ylmethyl)-1H-1,2,4-triazole] | 5.77 | 8.32 | 
Cn1nc(CN2CCN(c3ccccc3)CC2)nc1-c1ccc(C(C)(C)C)cc1 [Compound 4, 1-((5-(4-(tert-butyl)phenyl)-1-methyl-1H-1,2,4-triazol-3-yl)methyl)-4-phenylpiperazine] |  |  | pKi (S1R): 7.84
CN(Cc1nc(-c2ccc(C(C)(C)C)cc2)n(C)n1)CC1CC1 [Compound 9, 1-(5-(4-(tert-butyl)phenyl)-1-methyl-1H-1,2,4-triazol-3-yl)-N-(cyclopropylmethyl)-N-methylmethanamine] |  |  | pKi (S1R; [1]): 9.21
Cc1cc(-c2nc(CN3CCCC3)nn2C)ccc1C(F)(F)F [Compound 13, 1-methyl-5-(3-methyl-4-(trifluoromethyl)phenyl)-3-(pyrrolidin-1-ylmethyl)-1H-1,2,4-triazole] | < 6.00 | 7.68 | 
Cn1nc(CN2CCCC2)nc1-c1ccc2c(c1)CCCC2 [Compound 15, 1-methyl-3-(pyrrolidin-1-ylmethyl)-5-(5,6,7,8-tetrahydronaphthalen-2-yl)-1H-1,2,4-triazole] | < 6.00 | 7.45 | 
Cn1nc(CN2CCCCC2)nc1-c1ccc(C(C)(C)C)cc1 [Compound 1, 1-((5-(4-(tert-butyl)phenyl)-1-methyl-1H-1,2,4-triazol-3-yl)methyl)piperidine] |  |  | pKi (S1R; [1]): 8.43
Cn1nc(CN2CCN(Cc3ccccc3)CC2)nc1-c1ccc(C(C)(C)C)cc1 [Compound 6, 1-benzyl-4-((5-(4-(tert-butyl)phenyl)-1-methyl-1H-1,2,4-triazol-3-yl)methyl)piperazine] |  |  | pKi (S1R; [1]): 8.26
Cn1nc(CN2CCOCC2)nc1-c1ccc(C(C)(C)C)cc1 [Compound 2, 4-((5-(4-(tert-butyl)phenyl)-1-methyl-1H-1,2,4-triazol-3-yl)methyl)morpholine] |  |  | pKi (S1R; [1]): 7.25
CC(C)(C)c1ccc(-c2nc(CN3CCCC3)nn2C2CC2)cc1 [Compound 32, 5-(4-(tert-butyl)phenyl)-1-cyclopropyl-3-(pyrrolidin-1-ylmethyl)-1H-1,2,4-triazole] | 6.12 | 7.86 | 
CCn1nc(CN2CCC3(CCCC3)C2)nc1-c1ccc(C(C)(C)C)cc1 [Compound 65, 2-((5-(4-(tert-butyl)phenyl)-1-ethyl-1H-1,2,4-triazol-3-yl)methyl)-2-azaspiro[4.4]nonane] |  | 9.28 | S2R % at 1 μM (human S2R): 96% at 1 μM
Cn1nc(CN2CCC(C)(C)C2)nc1-c1ccc(C(C)(C)C)cc1 [Compound 26, 5-(4-(tert-butyl)phenyl)-3-((3,3-dimethylpyrrolidin-1-yl)methyl)-1-methyl-1H-1,2,4-triazole] | 6.72 | 9.05 | 
Cn1nc(CN2CCC(Cc3ccccc3)CC2)nc1-c1ccc(C(C)(C)C)cc1 [Compound 7, 4-benzyl-1-((5-(4-(tert-butyl)phenyl)-1-methyl-1H-1,2,4-triazol-3-yl)methyl)piperidine] |  |  | pKi (S1R; [1]): 8.69
Cn1nc(CN2CCCC2)nc1-c1ccc(Cl)c(Cl)c1 [Compound 11, 5-(3,4-dichlorophenyl)-1-methyl-3-(pyrrolidin-1-ylmethyl)-1H-1,2,4-triazole] | < 6.00 | 7.66 | 
CCn1nc(CN2CC3CCCC3C2)nc1-c1ccc(C(C)(C)C)cc1 (stereo not shown) [Compound 66, 2-((5-(4-(tert-butyl)pheny)-1-ethyl-1H-1,2,4-triazol-3-yl)methyl)octahydrocyclopenta[c]pyrrole] |  | 9.24 | S2R % at 1 μM (human S2R): 73% at 1 μM
Cn1nc(CN2CCN(CCc3ccccc3)CC2)nc1-c1ccc(C(C)(C)C)cc1 [Compound 5, 1-((5-(4-(tert-butyl)phenyl)-1-methyl-1H-1,2,4-triazol-3-yl)methyl)-4-phenethylpiperazine] |  |  | pKi (S1R): 7.99
CC(C)n1nc(CN2CCCC2)nc1-c1ccc(C(C)(C)C)cc1 [Compound 31, 5-(4-(tert-butyl)phenyl)-1-isopropyl-3-(pyrrolidin-1-ylmethyl)-1H-1,2,4-triazole] | 5.84 | 8.67 | 
